The text below walks through data of article PMC9227536, “Prediction of Pharmacokinetics of IDP-73152 in Humans Using Physiologically-Based Pharmacokinetics” (Pharmaceutics, 2022).

By efflux ratio is commonly meant the permeability from basolateral to apical divided by that in the opposite direction, in the common usage. What is called Papp A→B is how fast a substance crosses the layer from the apical side. Higher therefore signals ready permeation. What is called Papp B→A is how fast a substance crosses the layer from the basolateral side.

Data set [1] is described as follows: Caco-2 cell bidirectional permeability. The format is in vitro ADME. Particulars: human; for recovery at 2 h, 10 µM: Caco-2, Caco-2. As for the experimental part:
In this study, bidirectional permeability assays were conducted as described in the literature, with minor modifications. Briefly, Caco-2 cells (KCLB, Seoul, Korea) were seeded on Transwell® inserts (Corning Inc., Glendale, AZ, USA) and grown in a humidified atmosphere of 5% CO2 at 37 °C to form a confluent monolayer over 3 weeks. On day 21, after seeding, the integrity of the cell monolayer was assessed by measuring the transepithelial electrical resistance using an epithelial voltohmmeter (EVOM and EVOMX, World Precision Instruments, Sarasota, FL, USA). The medium in donor and receiver compartments was then replaced with 5 mM of HEPES in HBSS, and preincubated for 10 min at 37 °C. The permeability study was initiated by adding IDP-73152 (in a 10 µM final concentration in the chambers) to an apical insert (for apical-to-basolateral (A-to-B) transport) or a basolateral chamber (for basolateral-to-apical (B-to-A) transport). Samples were collected from both compartments at 30 min intervals up to 2 h. Throughout the study, the temperature and atmosphere of the compartments were maintained at 37 °C and 5% CO2. The samples were stored at −80 °C until analysis and the concentration of the compound was determined by LC-MS/MS assay for IDP-73152 [10]. The apparent permeability coefficient (Papp, in cm/s) was calculated using the following equation:(1) Papp=(dQ/dt/C0×A) where dQ/dt is the rate of IDP-73152 transport across monolayers (nmol/s), C0 is the initial concentration of IDP-73152 (10 μM), and A is the surface area of the insert (1.12 cm^2). The efflux ratio of IDP-73152 in the Caco-2 cell system was calculated by the ratio of Papp from B-to-A transport (Papp,B-to-A) to Papp from A-to-B transport (Papp,A-to-B).
(In general: Caco-2 monolayers are a common model of the intestinal barrier.)

Data set [2] in a line: Stability in plasma, rat. The format is in vitro ADME, rats. The method, then: The unbound fractions of IDP-73152 in various matrices were measured according to the manufacturer's instructions for the rapid equilibrium dialysis (RED) device (ThermoFisher Scientific, Waltham, MA, USA). Briefly, IDP-73152 was added to the plasma or the microsomal/hepatocyte incubation buffer from various species (i.e., mouse, rat, dog, and human for microsomal incubation; rat for hepatocyte incubation) to obtain final concentrations of the compound at 0.3, 1, and 3 μM. After the membrane insert was placed in the RED plate, the solution containing IDP-73152 was added (400 μL) to the sample chamber, and the dialysis buffer (600 μL) was added to the buffer chamber. The RED plate was sealed with parafilm and then incubated at 37 °C in the orbital shaker (Lab Companion, Daejeon, Korea) at 100 rpm for 5 h. […] The IDP-73152 concentration in the buffer/sample chambers (i.e., CBuffer Chamber and CSample Chamber) was determined by an assay. Thus, the fraction unbound was defined as:(2) % Fraction unbound=(CBuffer Chamber/CSample Chamber)×100% When necessary, the stability of IDP-73152 in the matrix was also determined at 5 h. […] Accordingly, the kinetics of IDP-73152 instability were determined in the rat blood at a final concentration of 0.3 μM. […]

Read-outs that look alike come from different tables or passages of the source.

`CC(C)(C)[C@H](NC(=O)[C@H](CC1CCCC1)CN(O)C=O)C(=O)N1CCC(NCc2cc(F)c(F)cc2F)CC1` [IDP-73152]: the recovery at 2 h, 10 µM in data set [1] (read-out: recovery, A to B transport) worked out at 96.6 ± 5.1%; in data set [1] (read-out: recovery, B to A transport), 93.4 ± 3%. Moreover, the efflux ratio at 2 h, 10 µM in data set [1] (Caco-2, Papp,B-to-A / Papp,A-to-B) was under 2. Moreover, the Papp A→B at 2 h, 10 µM in data set [1] (Caco-2 monolayer, 10 µM, apical-to-basolateral) came to 31.2 ± 1.93 ×10⁻⁶ cm/s. In addition, the Papp B→A at 2 h, 10 µM in data set [1] (Caco-2 monolayer, 10 µM, basolateral-to-apical) was determined as 49.5 ± 3.5 ×10⁻⁶ cm/s. The “stability in blood and plasma” value in data set [2] (rat blood and plasma, preliminary study) is on record as “unstable”. In data set [2] (rats plasma, 5 h, 37 °C), the “percentage remaining in plasma at 5 h” value is reported as 65.3 ± 13.7%.
